According to PMC4826192 (Oncotarget, 2015):

Columns and labels:
LTK = LTK (Homo sapiens, UniProt P29376); experiment: In vitro kinase inhibition profile (biochemical); conditions: read-out: Biochemical (IC50 nmol/L)
DDR2 = DDR2 (Homo sapiens, UniProt Q16832); experiment: In vitro kinase inhibition profile (biochemical); conditions: read-out: Biochemical (IC50 nmol/L)
EPHB1 = EPHB1 (Homo sapiens, UniProt P54762); experiment: In vitro kinase inhibition profile (biochemical); conditions: read-out: Biochemical (IC50 nmol/L)
[1] = mouse, in vivo
Experimental: (§1) […]. […] […]. Tumor size was measured twice weekly by caliper.

RON = RON (Homo sapiens, UniProt Q04912); experiment: In vitro kinase inhibition profile (biochemical); conditions: read-out: Biochemical (IC50 nmol/L)
JAK2 = JAK2 (Homo sapiens, UniProt O60674); experiment: In vitro kinase inhibition profile (biochemical); conditions: read-out: Biochemical (IC50 nmol/L)
EPHB4 = EPHB4 (Homo sapiens, UniProt P54760); experiment: In vitro kinase inhibition profile (biochemical); conditions: read-out: Biochemical (IC50 nmol/L)
Sequence of EPHB4 (P54760 16-987): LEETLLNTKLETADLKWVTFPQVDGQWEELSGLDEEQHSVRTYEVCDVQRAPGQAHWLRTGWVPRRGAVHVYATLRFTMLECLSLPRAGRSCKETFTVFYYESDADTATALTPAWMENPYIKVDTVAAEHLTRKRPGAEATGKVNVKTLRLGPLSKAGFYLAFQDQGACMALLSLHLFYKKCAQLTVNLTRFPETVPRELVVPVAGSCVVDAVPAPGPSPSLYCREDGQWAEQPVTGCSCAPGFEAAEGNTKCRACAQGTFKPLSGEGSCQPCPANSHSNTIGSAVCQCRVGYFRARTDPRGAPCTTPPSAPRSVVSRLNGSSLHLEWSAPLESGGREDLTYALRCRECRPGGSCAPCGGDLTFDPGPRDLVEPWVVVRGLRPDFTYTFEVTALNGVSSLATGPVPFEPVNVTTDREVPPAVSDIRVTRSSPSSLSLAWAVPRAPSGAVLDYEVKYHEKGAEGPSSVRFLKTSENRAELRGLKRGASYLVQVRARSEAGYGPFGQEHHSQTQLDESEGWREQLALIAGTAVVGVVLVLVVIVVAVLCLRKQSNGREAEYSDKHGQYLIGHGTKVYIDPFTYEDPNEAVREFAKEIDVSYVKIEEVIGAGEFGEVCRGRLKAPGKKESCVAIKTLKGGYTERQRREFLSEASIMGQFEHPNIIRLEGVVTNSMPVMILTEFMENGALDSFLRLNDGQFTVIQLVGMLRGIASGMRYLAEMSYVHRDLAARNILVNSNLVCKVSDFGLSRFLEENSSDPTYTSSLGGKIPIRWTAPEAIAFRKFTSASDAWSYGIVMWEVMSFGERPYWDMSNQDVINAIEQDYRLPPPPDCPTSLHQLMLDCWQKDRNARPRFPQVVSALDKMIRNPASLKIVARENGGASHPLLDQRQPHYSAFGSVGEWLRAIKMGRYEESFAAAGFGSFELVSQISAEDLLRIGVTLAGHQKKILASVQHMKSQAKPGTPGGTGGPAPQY

FER = FER (Homo sapiens, UniProt P16591); experiment: In vitro kinase inhibition profile (biochemical); conditions: read-out: Biochemical (IC50 nmol/L)
RET = RET (Homo sapiens, UniProt P07949); experiment: In vitro kinase inhibition profile (biochemical); conditions: read-out: Biochemical (IC50 nmol/L)
FGFR1 = FGFR1 (Homo sapiens, UniProt P11362); experiment: In vitro kinase inhibition profile (biochemical); conditions: read-out: Biochemical (IC50 nmol/L)
Sequence of FGFR1 (P11362 22-822): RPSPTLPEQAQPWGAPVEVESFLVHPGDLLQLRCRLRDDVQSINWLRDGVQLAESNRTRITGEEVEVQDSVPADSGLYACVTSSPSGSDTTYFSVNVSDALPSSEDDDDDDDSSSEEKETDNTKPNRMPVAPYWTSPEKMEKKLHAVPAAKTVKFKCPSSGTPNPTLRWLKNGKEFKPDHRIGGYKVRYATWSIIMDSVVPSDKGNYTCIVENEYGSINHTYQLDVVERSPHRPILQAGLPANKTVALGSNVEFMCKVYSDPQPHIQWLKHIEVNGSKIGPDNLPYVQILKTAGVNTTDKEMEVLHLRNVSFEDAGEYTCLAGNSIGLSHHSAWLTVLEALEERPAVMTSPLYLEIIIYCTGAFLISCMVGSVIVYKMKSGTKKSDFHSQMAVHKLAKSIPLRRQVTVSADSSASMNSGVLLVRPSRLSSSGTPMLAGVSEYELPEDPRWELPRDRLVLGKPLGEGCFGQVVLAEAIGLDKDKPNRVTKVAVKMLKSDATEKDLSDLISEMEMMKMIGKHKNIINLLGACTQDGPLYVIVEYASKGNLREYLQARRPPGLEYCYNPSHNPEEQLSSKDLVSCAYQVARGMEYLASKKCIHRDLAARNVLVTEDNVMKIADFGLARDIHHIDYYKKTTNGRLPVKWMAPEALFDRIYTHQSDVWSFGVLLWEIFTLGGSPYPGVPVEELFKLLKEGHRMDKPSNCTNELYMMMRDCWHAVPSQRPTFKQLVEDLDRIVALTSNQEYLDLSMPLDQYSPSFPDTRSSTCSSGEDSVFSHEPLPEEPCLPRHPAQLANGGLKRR

EPHA4 = EPHA4 (Homo sapiens, UniProt P54764); experiment: In vitro kinase inhibition profile (biochemical); conditions: read-out: Biochemical (IC50 nmol/L)
IGF1R = IGF1R (Homo sapiens, UniProt P08069); experiment: In vitro kinase inhibition profile (biochemical); conditions: read-out: Biochemical (IC50 nmol/L)
ARG = ARG (Homo sapiens, UniProt P42684); experiment: In vitro kinase inhibition profile (biochemical); conditions: read-out: Biochemical (IC50 nmol/L)
Sequence of ARG (P42684 whole entry): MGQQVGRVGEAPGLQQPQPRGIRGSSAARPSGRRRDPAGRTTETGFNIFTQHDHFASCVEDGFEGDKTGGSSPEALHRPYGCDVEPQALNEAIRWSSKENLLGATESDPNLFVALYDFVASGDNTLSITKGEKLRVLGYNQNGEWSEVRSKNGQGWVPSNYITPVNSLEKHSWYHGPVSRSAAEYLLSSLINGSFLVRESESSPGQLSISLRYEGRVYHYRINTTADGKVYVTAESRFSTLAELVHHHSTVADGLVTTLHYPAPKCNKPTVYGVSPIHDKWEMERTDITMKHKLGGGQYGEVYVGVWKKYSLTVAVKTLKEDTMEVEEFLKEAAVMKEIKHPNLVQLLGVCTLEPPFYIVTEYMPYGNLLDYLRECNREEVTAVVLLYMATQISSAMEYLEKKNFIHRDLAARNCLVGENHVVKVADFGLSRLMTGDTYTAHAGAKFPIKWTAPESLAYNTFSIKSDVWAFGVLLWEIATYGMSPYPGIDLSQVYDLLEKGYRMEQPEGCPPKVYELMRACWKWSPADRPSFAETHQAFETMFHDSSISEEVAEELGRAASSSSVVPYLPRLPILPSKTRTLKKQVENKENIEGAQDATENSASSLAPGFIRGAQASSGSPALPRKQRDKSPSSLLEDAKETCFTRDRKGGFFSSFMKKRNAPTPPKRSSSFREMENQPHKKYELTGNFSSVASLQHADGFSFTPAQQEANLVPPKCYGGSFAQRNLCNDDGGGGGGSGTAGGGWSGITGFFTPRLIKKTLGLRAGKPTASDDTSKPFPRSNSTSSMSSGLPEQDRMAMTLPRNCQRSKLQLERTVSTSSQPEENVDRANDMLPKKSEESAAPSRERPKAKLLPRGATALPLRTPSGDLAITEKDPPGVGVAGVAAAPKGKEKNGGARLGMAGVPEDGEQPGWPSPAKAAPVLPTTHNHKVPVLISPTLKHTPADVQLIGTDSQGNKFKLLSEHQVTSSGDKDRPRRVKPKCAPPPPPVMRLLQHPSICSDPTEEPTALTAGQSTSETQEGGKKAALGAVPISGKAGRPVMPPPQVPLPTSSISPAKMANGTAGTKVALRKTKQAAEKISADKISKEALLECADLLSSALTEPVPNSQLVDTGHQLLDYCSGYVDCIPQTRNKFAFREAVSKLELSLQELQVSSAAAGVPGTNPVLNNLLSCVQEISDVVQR

PDGFRα = PDGFRα (Homo sapiens, UniProt P16234); experiment: In vitro kinase inhibition profile (biochemical); conditions: read-out: Biochemical (IC50 nmol/L)
Sequence of PDGFRα (P16234 24-1089): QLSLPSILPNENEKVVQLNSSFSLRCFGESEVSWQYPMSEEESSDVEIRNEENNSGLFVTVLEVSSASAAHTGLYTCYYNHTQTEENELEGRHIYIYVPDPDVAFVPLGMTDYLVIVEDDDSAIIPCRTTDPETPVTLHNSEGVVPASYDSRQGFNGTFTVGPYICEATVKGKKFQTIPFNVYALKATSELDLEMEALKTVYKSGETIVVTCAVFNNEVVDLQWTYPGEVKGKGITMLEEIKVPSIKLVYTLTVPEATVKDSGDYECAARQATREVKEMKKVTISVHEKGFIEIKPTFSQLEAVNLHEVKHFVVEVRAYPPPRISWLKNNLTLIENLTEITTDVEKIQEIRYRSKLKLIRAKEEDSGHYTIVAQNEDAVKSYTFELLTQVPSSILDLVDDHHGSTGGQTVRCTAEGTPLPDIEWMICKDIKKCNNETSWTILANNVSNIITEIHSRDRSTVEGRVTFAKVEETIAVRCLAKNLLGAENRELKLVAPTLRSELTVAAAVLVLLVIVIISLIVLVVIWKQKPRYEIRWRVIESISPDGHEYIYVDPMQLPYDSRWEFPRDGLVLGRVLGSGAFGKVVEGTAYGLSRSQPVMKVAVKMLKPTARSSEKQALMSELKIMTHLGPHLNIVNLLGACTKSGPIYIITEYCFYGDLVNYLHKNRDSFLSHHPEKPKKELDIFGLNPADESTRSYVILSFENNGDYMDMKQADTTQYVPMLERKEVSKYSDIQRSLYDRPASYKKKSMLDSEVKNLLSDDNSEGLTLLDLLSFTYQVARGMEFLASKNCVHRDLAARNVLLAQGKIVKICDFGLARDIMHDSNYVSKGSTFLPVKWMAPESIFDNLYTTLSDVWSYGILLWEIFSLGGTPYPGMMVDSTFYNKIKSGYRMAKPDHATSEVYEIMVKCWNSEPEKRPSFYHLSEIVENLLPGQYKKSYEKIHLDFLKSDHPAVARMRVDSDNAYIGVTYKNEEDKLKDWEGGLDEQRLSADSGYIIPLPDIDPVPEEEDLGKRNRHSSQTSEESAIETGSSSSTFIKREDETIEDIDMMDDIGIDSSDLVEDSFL

EPHA2 = EPHA2 (Homo sapiens, UniProt P29317); experiment: In vitro kinase inhibition profile (biochemical); conditions: read-out: Biochemical (IC50 nmol/L)
Sequence of EPHA2 (P29317 24-976): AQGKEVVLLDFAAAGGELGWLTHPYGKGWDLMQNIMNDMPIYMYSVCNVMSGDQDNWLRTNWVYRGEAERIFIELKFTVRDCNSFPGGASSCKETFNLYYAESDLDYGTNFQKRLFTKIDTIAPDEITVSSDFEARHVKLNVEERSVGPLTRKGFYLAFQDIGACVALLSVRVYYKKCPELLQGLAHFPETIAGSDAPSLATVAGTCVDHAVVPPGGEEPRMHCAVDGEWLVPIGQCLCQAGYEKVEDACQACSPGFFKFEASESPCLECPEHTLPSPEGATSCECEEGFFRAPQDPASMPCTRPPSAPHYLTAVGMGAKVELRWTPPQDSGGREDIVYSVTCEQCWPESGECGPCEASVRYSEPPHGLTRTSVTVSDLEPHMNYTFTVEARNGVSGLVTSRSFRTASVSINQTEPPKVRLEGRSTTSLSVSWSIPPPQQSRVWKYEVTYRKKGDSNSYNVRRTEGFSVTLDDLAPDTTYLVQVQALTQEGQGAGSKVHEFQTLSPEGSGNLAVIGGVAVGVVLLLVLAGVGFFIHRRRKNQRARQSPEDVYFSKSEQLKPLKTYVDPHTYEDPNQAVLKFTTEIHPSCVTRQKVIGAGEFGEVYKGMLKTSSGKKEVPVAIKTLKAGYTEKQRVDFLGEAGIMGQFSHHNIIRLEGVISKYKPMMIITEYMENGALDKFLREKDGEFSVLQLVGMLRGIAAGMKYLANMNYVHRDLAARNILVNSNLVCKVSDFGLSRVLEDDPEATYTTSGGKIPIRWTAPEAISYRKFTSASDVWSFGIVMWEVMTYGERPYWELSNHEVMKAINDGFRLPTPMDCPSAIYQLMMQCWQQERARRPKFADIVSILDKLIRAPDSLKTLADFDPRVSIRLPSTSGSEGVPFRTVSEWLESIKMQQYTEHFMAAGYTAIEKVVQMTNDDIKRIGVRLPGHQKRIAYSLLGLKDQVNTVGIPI

SRC = SRC (Homo sapiens, UniProt P12931); experiment: In vitro kinase inhibition profile (biochemical); conditions: read-out: Biochemical (IC50 nmol/L)
[2] = tested on: cyclin D1, p-Rb, cleaved PARP; experiment: Western blot of cell-cycle and apoptosis markers in MPNST cells; assay type: cell-based
Experimental: Western blots were carried out as previously described.
www.impactjournals.com/oncotarget/ Oncotarget, Supplementary Materials 2015
Supplementary Figure S2: A . LS141 cells were plated in 96-well plates and treated in triplicate with indicated concentration
of drugs for 72 hours. Cell viability was measured using Dojindo Cell Counting Kit 8. Error bars represent standard error mean. Combined
data from at least two independent experiments is shown. […]
fold increase in G1 phase compared to no drug control. * = p<0.05, ** = p<0.005. Error bars represent standard error mean. Combined data
from two independent experiments is shown.
treated with MGCD516. C. MPNST cells were plated in 96-well plates and treated in triplicate with indicated concentrations of drugs for
72 hours. Cell viability was measured using Dojindo Cell Counting Kit 8. Error bars represent standard error mean. Combined data from
two independent experiments is shown. […]

ERBB2 = ERBB2 (Homo sapiens, UniProt P04626); experiment: In vitro kinase inhibition profile (biochemical); conditions: read-out: Biochemical (IC50 nmol/L)
ALK = ALK (Homo sapiens, UniProt Q9UM73); experiment: In vitro kinase inhibition profile (biochemical); conditions: read-out: Biochemical (IC50 nmol/L)
MPNST xenografts = experiment: MPNST mouse xenograft tumor growth; assay type: in vivo, ICR/SCID mice; conditions: MGCD516 15 mg/kg p.o., crizotinib 50 mg/kg i.p., imatinib 30 mg/kg i.p., QD 5 days a week
Experimental: as §1

EPHA3 = EPHA3 (Homo sapiens, UniProt P29320); experiment: In vitro kinase inhibition profile (biochemical); conditions: read-out: Biochemical (IC50 nmol/L)
SYK = SYK (Homo sapiens, UniProt P43405); experiment: In vitro kinase inhibition profile (biochemical); conditions: read-out: Biochemical (IC50 nmol/L)
DDR1 = DDR1 (Homo sapiens, UniProt Q08345); experiment: In vitro kinase inhibition profile (biochemical); conditions: read-out: Biochemical (IC50 nmol/L)
FYN = FYN (Homo sapiens, UniProt P06241); experiment: In vitro kinase inhibition profile (biochemical); conditions: read-out: Biochemical (IC50 nmol/L)
INSR = INSR (Homo sapiens, UniProt P06213); experiment: In vitro kinase inhibition profile (biochemical); conditions: read-out: Biochemical (IC50 nmol/L)
ROS = ROS (Homo sapiens, UniProt P08922); experiment: In vitro kinase inhibition profile (biochemical); conditions: read-out: Biochemical (IC50 nmol/L)
FAK = FAK (Homo sapiens, UniProt Q05397); experiment: In vitro kinase inhibition profile (biochemical); conditions: read-out: Biochemical (IC50 nmol/L)
JAK3 = JAK3 (Homo sapiens, UniProt P52333); experiment: In vitro kinase inhibition profile (biochemical); conditions: read-out: Biochemical (IC50 nmol/L)
JAK1 = JAK1 (Homo sapiens, UniProt P23458); experiment: In vitro kinase inhibition profile (biochemical); conditions: read-out: Biochemical (IC50 nmol/L)

Compound: COCCNCc1ccc(-c2cc3nccc(Oc4ccc(NC(=O)C5(C(=O)Nc6ccc(F)cc6)CC5)cc4F)c3s2)nc1 [MGCD516, Sitravatinib]
- IC50 (LTK): 1940 nmol/L
- IC50 (DDR2): 0.5 nmol/L
- IC50 (EPHB1): > 10000 nmol/L
- toxicity as determined by animal weight [1]: did not result in toxicity
- IC50 (RON): 43 nmol/L
- IC50 (JAK2): > 10000 nmol/L
- IC50 (EPHB4): 12 nmol/L
- IC50 (FER): 1590 nmol/L
- IC50 (RET): 44 nmol/L
- IC50 (FGFR1): > 5000 nmol/L
- IC50 (EPHA4): 76 nmol/L
- IC50 (IGF1R): 3980 nmol/L
- IC50 (ARG): 4100 nmol/L
- IC50 (PDGFRα): 30 nmol/L
- IC50 (EPHA2): 44 nmol/L
- IC50 (SRC): 156 nmol/L
- cleaved PARP [2]: no induction of cleaved PARP
- cyclin D1 level [2]: significant down-regulation of cyclin D1
- hyperphosphorylated form of retinoblastoma protein (p-Rb) [2]: significant decrease
- IC50 (ERBB2): > 5000 nmol/L
- IC50 (ALK): > 10000 nmol/L
- tumor growth (MPNST xenografts): significant suppression of tumor growth
- IC50 (EPHA3): 1 nmol/L
- IC50 (SYK): > 10000 nmol/L
- IC50 (DDR1): 29 nmol/L
- IC50 (FYN): 339 nmol/L
- IC50 (INSR): 5550 nmol/L
- IC50 (ROS): 59 nmol/L
- IC50 (FAK): > 10000 nmol/L
- IC50 (JAK3): > 10000 nmol/L
- IC50 (JAK1): > 10000 nmol/L
